Laboratory results from patent US9499493B2, “2,4-pyrimidinediamine compounds and their uses” (Rigel Pharmaceuticals, Inc., priority 2002, dated 2016).
Each block holds one molecule with its values, some of them ahead of it.

How the values were obtained:
[1] = Mouse model of allergic asthma (ovalbumin); format: in vivo; details: for methacoline-induced bronchocontriction: mouse, in vivo
Source text: Mice are sensitized to ovalbumin (chicken protein) in the presence of an adjuvant (Alum) by the intraperitoneal route on day 0 and day 7. One week later, mice are challenged intranasally with ovalbumin on Days 14, 15 and 16 (more stringent model) or on Day 14 (less stringent model). This sensitization and challenge regimen leads to airway hyperresponsiveness and inflammation in the lungs, which are two dominant characteristics of human allergic asthma. In the mouse model, the in vivo airway responses are measured using a whole body plethysmograph which determines the PENH (enhanced Pause, Buxco Electronics). The PENH is a dimensionless value comprised of the peak inspiratory flow (PIF), peak expiratory flow (PEF), time of inspiration, time of expiration and relaxation time, and is considered a validated parameter of airway responsiveness. Responses to allergen challenge (OVA) are compared with animals challenged with saline only. Twenty-four hours after challenge, mice are exposed to increasing doses of methacholine (muscarinic receptor agonist) which results in smooth muscle contraction. […] In addition, a cellular infiltrate in the airway is observed in ovalbumin challenged mice when compared with the saline challenged mice. This cellular infiltrate is mainly characterized by eosinophils, but a smaller influx of neutrophils and mononuclear cells is also present.
The use of this model for the evaluation of small molecule inhibitors of mast cell degranulation has been validated is several ways. First, using mast cell deficient mice (W/W^v) it has been shown that the ovalbumin-induced responses are dependent upon the presence of mast cells.

CHMC cells = assay: Phosphorylation of proteins downstream of Syk / LYN kinase in the FcεRI cascade, activated CHMC cells; format: cell-based, human; details: FIG. 10
[2] = system: cultured human mast cells (CHMC); assay: CHMC low cell density IgE activation: tryptase assay; format: cell-based; details: anti-IgE
Summary of the method: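 Read-out: tryptase released into supernatant, measured by substrate turnover over 30 min at RT. Low-density CHMC (1000-1500 cells/well, per donor degranulation activity) in MT buffer, 1 hr at 37° C, then anti-IgE challenge 30 min at 37° C.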

[3] = system: cultured human mast cells (CHMC); assay: CHMC low cell density ionomycin activation: tryptase assay; format: cell-based
[4] = system: bone marrow derived mast cells (BMMC); assay: BMMC high cell density IgE activation: hexosaminidase; format: cell-based, mouse; details: anti-IgE, second part of TABLE 1, read-out: BMMC anti-IgE hexos. IC50
Method: (§1) After sensitizing, cells are counted, pelleted (1000 rpm, 5-10 minutes), and resuspended at 1-3×10^6 cells/ml in MT buffer. Add 100 ul of cell suspension to each well and 100 ul of compound dilutions. The final vehicle concentration is 0.5% DMSO. Incubate at 37° C. (5% CO2) for 1 hour. After 1 hour of compound treatment, stimulate cells with 6× stimulus (60 ng/ml DNP-BSA). Mix wells with the cells and allow plates to incubate at 37° C. (5% CO2) for one hour. After 1 hour incubation, pellet cells (10 minutes, 1000 RPM) and collect 200 ul per well of the supernatant, being careful not to disturb pellet, and transfer to a clean tube or 96-well plate. Place the supernatant plate on ice. During the 4-5 hour step (see next) perform the hexosiminidase assay. Resuspend cell pellet in 240 ul WEI-conditioned media containing 0.5% DMSO and corresponding concentration of compound. Incubate BMMC cells for 4-5 hours at 37° C. (5% CO2). After incubation, pellet cells (1000 RPM, 10 minutes) and collect 225 ul per well and place in −80° C. until ready to perform ELISAS. ELISAS are performed on appropriately diluted samples (determined empirically for each donor cell population so that the sample measurement falls within the standard curve) following the supplier's instructions.
Hexosaminidase assay: In a solid black 96-well assay plate, add 50 uL hexosaminidase substrate (4-methylumbelliferyl-N-acetyl-(3-D-glucosaminide; 2 mM) to each well. Add 50 uL of BMMC cell supernatant (see above) to the hexoseaminidase substrate, place at 37° C. for 30 minutes and read the plate at 5, 10, 15, and 30 minutes on a spectrophotometer.

[5] = system: bone marrow derived mast cells (BMMC); assay: BMMC high cell density IgE activation: histamine; format: cell-based, mouse; details: anti-IgE, second part of TABLE 1
Method: (§2) Inhibition of degranulation was measured at both low and high cell density by quantifying the release of the granule specific factors tryptase, histamine and hexosaminidase. Inhibition of release and/or synthesis of lipid mediators was assessed by measuring the release of leukotriene LTC4 and inhibition of release and/or synthesis of cytokines was monitored by quantifying TNF-α, IL-6 and IL-13. Tryptase and hexosaminidase were quantified using fluorogenic substrates as described in their respective examples. […] The protocols of the various assays are provided below.
as §1

[6] = system: bone marrow derived mast cells (BMMC); assay: BMMC high cell density IgE activation: LTC4; format: cell-based, mouse; details: anti-IgE, second part of TABLE 1
Method: as §2, §1

[7] = system: bone marrow derived mast cells (BMMC); assay: BMMC high cell density IgE activation: TNFalpha; format: cell-based, mouse; details: anti-IgE, second part of TABLE 1, read-out: BMMC anti-IgE TNF-alpha IC50
Method: as §2, §1

[8] = system: bone marrow derived mast cells (BMMC); assay: BMMC high cell density IgE activation: IL-6; format: cell-based, mouse; details: anti-IgE, second part of TABLE 1
Method: as §2, §1

Jurkat cells = assay: Jurkat toxicity, Cell Titer Glo assay; format: cell-based; details: 18 hours incubation
Method: Seed 50 μl cells (1×10^6/ml) into each well containing 50 μl compound. […] Shake plates for 1 minute to mix cells and compound. Incubate plates at 37° C. […] Next day, harvest 50 μl cells from each well, add to 50 μl Cell Titer Glo reagent ([…]). Shake plates for 1 minute. Read on luminometer.

[9] = system: cultured human mast cells (CHMC); assay: CHMC high cell density IgE activation: hexos (hexosaminidase) release; format: cell-based; details: anti-IgE activation
Method: as §2
(§3) After sensitizing, cells are counted, pelleted (1000 rpm, 5-10 minutes), and resuspended at 1-2×10^6 cells/ml in MT buffer. Add 100 ul of cell suspension to each well and 100 ul of compound dilutions. The final vehicle concentration is 0.5% DMSO. Incubate at 37° C. (5% CO2) for 1 hour. After 1 hour of compound treatment, stimulate cells with 6× anti-IgE. Mix wells with the cells and allow plates to incubate at 37° C. (5% CO2) for one hour. After 1 hour incubation, pellet cells (10 minutes, 1000 RPM) and collect 200 ul per well of the supernatant, being careful not to disturb pellet. Place the supernatant plate on ice. During the 7-hour step (see next) perform tryptase assay on supernatant that had been diluted 1:500. Resuspend cell pellet in 240 ul of CM media containing 0.5% DMSO and corresponding concentration of compound. Incubate CHMC cells for 7 hours at 37° C. (5% CO2). After incubation, pellet cells (1000 RPM, 10 minutes) and collect 225 ul per well and place in −80° C. until ready to perform ELISAS. ELISAS are performed on appropriately diluted samples (determined empirically for each donor cell population so that the sample measurement falls within the standard curve) following the supplier's instructions.

[10] = system: cultured human mast cells (CHMC); assay: CHMC high cell density IgE activation: tryptase; format: cell-based; details: anti-IgE activation
Method: as §3

[11] = system: cultured human mast cells (CHMC); assay: CHMC high cell density IgE activation: histamine; format: cell-based; details: anti-IgE activation
Method: as §2, §3

[12] = system: cultured human mast cells (CHMC); assay: CHMC high cell density IgE activation: LTC4; format: cell-based; details: anti-IgE activation
Method: as §2, §3

[13] = system: cultured human mast cells (CHMC); assay: CHMC high cell density IgE activation: IL-13; format: cell-based; details: anti-IgE activation
Method: as §2, §3

[14] = system: FcγRI-mediated degranulation; assay: FcγRI receptor-mediated degranulation (activation with anti-human IgG Fab fragment); format: cell-based; details: cells not primed with IgE, activated with rabbit anti-human IgG Fab fragment
[15] = Pharmacokinetics / oral bioavailability in rats; format: in vivo; details: rats
Method: Over 50 2,4-pyrimidinediamine compounds of the invention were tested for oral bioavailability. For the study, compounds were dissolved in various vehicles (e.g. PEG 400 solution and CMC suspension) for intravenous and oral dosing in the rats. Following administration of the drug, plasma samples were obtained and extracted. The plasma concentrations of the compounds were determined by high performance liquid chromatography/tandem mass spectrometry (LC/MS/MS) methods. Pharmacokinetic analyses were performed based on the plasma concentration data. The pharmacokinetic parameters of interest include Clearance (CL), Volume of distribution at steady-state (Vss), terminal half-life (t1/2), and oral bioavailability (% F).

Structure (SMILES): O=C(O)c1cc(=O)c2c(OCC(O)COc3cccc4oc(C(=O)O)cc(=O)c34)cccc2o1 [Cromolyn]
ovalbumin-induced airway hyperresponsiveness and inflammation ([1]; data not shown): able to block

Structure (SMILES): CC(C)(C)n1nc(-c2ccc(Cl)cc2)c2c(N)ncnc21 [PP2, reference compound]
phosphorylation of proteins downstream of LYN kinase (CHMC cells): inhibition

Structure (SMILES): CNC(=O)COc1cccc(Nc2ncc(F)c(Nc3ccc4c(n3)NC(=O)CO4)n2)c1 [R921304, 5-Fluoro-N2-(3-methylaminocarbonylmethyleneoxyphenyl)-N4-[2H-pyrido[3,2-b]-1,4-oxazin-3(4H)-one-6-yl]-2,4-pyrimidinediamine]
IC50 [2]: 85 nM
IC50 [3]: > 10000 nM
ovalbumin-induced airway hyperresponsiveness to methacholine ([1]; intranasal, 20 mg/kg, 10 consecutive days (Day 7 through Day 16)): able to inhibit

Structure (SMILES): CCCC1O[C@@H]2C[C@H]3[C@@H]4CCC5=CC(=O)C=C[C@]5(C)[C@H]4[C@@H](O)C[C@]3(C)[C@]2(C(=O)CO)O1 (stereo partly drawn) [budesonide]
methacoline-induced bronchocontriction [1]: inhibitory effect

Structure (SMILES): C[C@@H]1C[C@H]2[C@@H]3CCC4=CC(=O)C=C[C@]4(C)[C@@]3(F)[C@@H](O)C[C@]2(C)[C@@]1(O)C(=O)CO [dexamethasone]
methacoline-induced bronchocontriction [1]: inhibitory effect

Further lines, with some results ahead:

IC50 [2]: 145 nM
IC50 [3]: > 10000 nM
IC50 [4]: < 220 nM
IC50 [5]: < 220 nM
IC50 [6]: < 220 nM
IC50 [7]: < 220 nM
IC50 [8]: < 220 nM
Structure (SMILES): O=C(COc1cccc(Nc2ncc(F)c(Nc3ccc4c(c3)OCCO4)n2)c1)NCCO [R926505, N4-(3,4-Ethylenedioxyphenyl)-5-fluoro-N2-[3-(2-hydroxyethylamino)carbonylmethyleneoxyphenyl]-2,4-pyrimidinediamine]
IC50 (Jurkat cells): 4200 nM

IC50 [2]: 440 nM
IC50 [3]: > 10000 nM
IC50 [9]: 921 nM
IC50 [10]: 1120 nM
IC50 [11]: 1670 nM
IC50 [12]: 417 nM
IC50 [13]: 686 nM
Structure (SMILES): CNCCOc1cccc(Nc2ncc(F)c(Nc3ccc4c(c3)OCCO4)n2)c1 [R926510, N4-(3,4-Ethylenedioxyphenyl)-5-fluoro-N2-[3-[2-(N-methylamino)ethyleneoxy]phenyl]-2,4-pyrimidinediamine]
IC50 (Jurkat cells): 2770 nM

IC50 [3]: > 10000 nM
IC50 [4]: < 220 nM
IC50 [5]: < 220 nM
IC50 [6]: 461 nM
IC50 [7]: < 220 nM
IC50 [8]: < 220 nM
Structure (SMILES): COc1cc(Nc2ncc(F)c(Nc3cccc(O)c3)n2)cc(OC)c1 [R926780, N2-(3.5-Dimethoxyphenyl)-5-fluoro-N4-(3-hydroxyphenyl)-2,4-pyrimidinediamine]
IC50 (Jurkat cells): > 5000 nM

FcγRI-mediated degranulation (in words) [14]: inhibit FcγRI-mediated degranulation
oral bioavailabilities and half-lives (in words) [15]: good
Structure (SMILES): COc1cc(Nc2ncc(F)c(Nc3ccc4c(c3)NC(=O)C(C)(C)O4)n2)cc(OC)c1 [R927050]

IC50 [2]: 136 nM
IC50 [3]: > 10000 nM
IC50 [4]: 80 nM
IC50 [5]: 48 nM
IC50 [8]: 37 nM
oral bioavailabilities and half-lives (in words) [15]: good
Structure (SMILES): Cn1ncc2cc(Nc3ncc(F)c(Nc4ccc5c(c4)OCCO5)n3)ccc21 [R935193, N4-(3,4-Ethylenedioxyphenyl)-5-fluoro-N2-(1-methyl-indazoline-5-yl)-2,4-pyrimidinediamine]

IC50 [2]: 60 nM
IC50 [3]: > 10000 nM
FcγRI-mediated degranulation (in words) [14]: inhibit FcγRI-mediated degranulation
oral bioavailabilities and half-lives (in words) [15]: good
Structure (SMILES): Fc1cnc(Nc2ccc3cn[nH]c3c2)nc1Nc1ccc(Cl)c(Cl)c1 [R935372, N4-(3,4-Dichlorophenyl)-5-fluoro-N2-(indazoline-6-yl)-2,4-pyrimidinediamine]

IC50 [3]: 4000 nM
FcγRI-mediated degranulation (in words) [14]: inhibit FcγRI-mediated degranulation
oral bioavailabilities and half-lives (in words) [15]: good
Structure (SMILES): CC1(C)Oc2ccc(Nc3ncc(F)c(Nc4ccc5c(c4)NC(=O)C(C)(C)O5)n3)cc2NC1=O [R940350, N2,N4-[(2,2-Dimethyl-4H-benzo[1,4]oxazin-3-one)-6-yl]-5-fluoro-2,4-pyrimidinediamine]
